ChEMBL document CHEMBL3507680, “University of Dundee, Gates Library screen for HepG2 cell viability”

assay: Human HepG2 cell viability assay in 384 well format; format: toxicity, cell-based; design: dose 125 nL, time 70.5 hour; concentration not given beside the values; details: HepG2 cells, read-out: Inhibition

| Compound | cytotoxicity at 70.5 h |
| --- | --- |
| C[C@H]1C[C@H]2CN(S(=O)(=O)c3ccc(F)cc3)CC[C@H]2O1 | 13.7% |
| CN(Cc1cccc(C(N)=O)c1)Cc1nc2c(cnn2C)c(=O)[nH]1 | -15.8% |
| COc1cccc(CNCc2ccccc2Cl)c1O | 26.4% |
| Cc1cccc(C)c1NC(=O)CN(C)C(C)c1nc(C(C)(C)C)no1 (stereo not given) | -88.9% |
| COc1cccc2c1OCC(C(=O)NCc1ncc3c(n1)CCC3)C2 (stereo not given) | -9.1% |
| Cn1ncc2c1CCCN(C(=O)C1CC1)C2 | 14.3% |
| O=C(Nc1cccnc1)C1Cc2nc(-c3ccsc3)sc2N1CC1CC1 (stereo not given) | 15.3% |
| CC(COc1ccccc1)NCc1nc(-c2cccnc2)no1 (stereo not given) | -1.13% |
| Cc1c(CN(C)C(=O)c2ccnn2C)cnn1C | 6.18% |
| CC(C#N)(NC(=O)COc1ccccc1Br)C1CC1 (stereo not given) | 8.66% |
| CCOc1cc(-c2cc(=O)n3c(n2)CCCCC3)ccc1O | -20.5% |
| Cc1ccoc1C(=O)N1CCO[C@H]2[C@H](OCC3CCOCC3)CC[C@@H]21 | -15% |
| COC(=O)c1ccc(N(C(=O)c2ccncc2)C(C)C)c(C)c1 | -17.2% |
| CN(C)C(=O)c1cccc(CCNc2ccccc2S(C)(=O)=O)c1 | -0.957% |
| CN1CCN(C(=O)c2ccc3c(c2)[nH]c(=O)n3C2CCCC2)CC1 | 9.54% |
| CCc1n[nH]c(C2CN(Cc3csc(C4CCCC4)n3)CCO2)n1 (stereo not given) | 6.69% |
| Cc1n[nH]c2nc(-c3cccc(Cl)c3)cc(C(=O)O)c12 | 9.1% |
| CCS(=O)(=O)N1CCCC(Cc2cnccn2)C1 (stereo not given) | -6.07% |
| Cc1ccc(CN(C)Cc2nc3c(cnn3C)c(=O)[nH]2)o1 | -2.01% |
| CC(C#N)CN(C)Cc1nc2c(cnn2C)c(=O)[nH]1 (stereo not given) | -7.12% |
| O=C(CCc1nc2cc(Br)cnc2[nH]1)NCCCn1ccnc1 | -17.5% |
| CN(C)Cc1nc(C2(NC(=O)Nc3ccccc3)CCCC2)no1 | -12.8% |
| O=S1(=O)NCC2(CCN(c3ncccn3)CC2)COc2ccccc21 | 47.5% |
| CN(Cc1nc2ccccc2c(=O)[nH]1)C[C@@H]1CCCN2CCCC[C@H]12 | -2.89% |
| CC(C)[C@@H]1CN(C(=O)C2(c3ccccc3)CCN(C)CC2)C[C@H]1C(=O)O | -5.2% |
| CC1(C)CNC(=O)CN(C(=O)Cc2ccccc2)C1 | 0.101% |
| CCO[C@@H]1CCN(C(=O)c2ccc[nH]2)[C@@H]1Cc1cnn(C)c1 | -2.67% |

| Compound | cytotoxicity at 70.5 h |
| --- | --- |
| N#Cc1cnn(-c2ccc(C(=O)N(C3CCCCC3)C3CC3)cc2)c1N | -0.0932% |
| Cc1cnn(CC2CN(Cc3nc(-c4cccnc4)no3)CCO2)c1 (stereo not given) | -0.171% |
| Cc1ccc(N2CC[C@H]3O[C@@H](C(=O)N4CCCCO4)CC[C@H]32)nn1 | -4.7% |
| CC(C)N(C)CCCNC(=O)c1cnn(C(C)C)c1C(F)(F)F | 13.9% |
| Cc1nnc(CNCC2(O)CCCN(Cc3ccc(F)c(F)c3)C2=O)[nH]1 (stereo not given) | -0.578% |
| CO[C@@H]1CO[C@@]2(CCCN(C(=O)N3CCCC3)C2)C1 | 0.448% |
| CC(=O)Nc1ccccc1Sc1nc(Br)nn1C | -4.88% |
| CC(=O)N[C@@H]1CN(CC(=O)NCc2ccccc2C)C[C@H]1C(C)C | -6.75% |
| COc1ccc2c(ccn2CCC(=O)Nc2nc[nH]n2)c1 | 0.0223% |
| Cc1nnc(CN(CCc2ccccc2)C2CCN(C)CC2)s1 | -13.6% |
| Cc1ccccc1-n1cnnc1SCC(=O)NCC1CCCO1 (stereo not given) | -8.74% |
| CSc1ccc(S(=O)(=O)NC2CNC(=O)C2)cc1 (stereo not given) | -3.59% |
| Cc1cc(C(=O)N2C[C@H](C(C)C)[C@@H](N(C)C)C2)cs1 | -2.9% |
| Cc1nnc(N2C[C@@H](OCCCn3cccn3)[C@H]3OCCC[C@H]32)s1 | -9.45% |
| CN(C)c1cc(C(=O)N2CCCC2c2cnn(C)c2)ccn1 (stereo not given) | 4.19% |
| COc1cccc(C(=O)N2CCCCC2CNC(N)=O)c1 (stereo not given) | 9% |
| CC(=O)NCc1nnc2n1CCN(Cc1cccs1)C2 | -11.7% |
| COc1ccccc1C(C)(C)NC(=O)c1cc(NC(C)=O)ccc1F | -6.53% |
| Cc1ccc2oc([C@H]3CCN(Cc4ccccc4)C3)nc2c1 | 5.17% |
| Cc1ccn(-c2ccc(NCc3ccnc(N4CCCCC4)c3)nn2)n1 | -10.5% |
| CC(C)C(NC(=O)NCCNc1cnccn1)c1cccs1 (stereo not given) | -11.6% |
| CCn1cc(CN2CCCn3nc(CNS(C)(=O)=O)cc3C2)c(C)n1 | 13.3% |
| O=C(c1ccnn1COc1ccc(Cl)cc1)N1CCOCC1 | -6.03% |
| CC(C)(C)OC(=O)Cn1cccc(S(=O)(=O)N2CCCC2)c1=O | -12.8% |
| O=S(=O)(c1ccccc1)N1CCCC(c2nccs2)C1 (stereo not given) | -2% |
| Cc1nn2c(N3CCC(O)C3)cc(-c3ccccc3)nc2c1C (stereo not given) | -5.83% |
| FC(F)(F)c1ccc(-c2c[nH]c([C@@H]3COCCN3)n2)cc1 | -16% |

| Compound | cytotoxicity at 70.5 h |
| --- | --- |
| CCc1cn[nH]c1C1CCN(C(=O)c2cccc(O)c2C)CC1 | -12.3% |
| O=C(c1cc(Cl)c(Br)[nH]1)N1CCN(Cc2ccco2)CC1 | -6.08% |
| Cc1c(C(C)NC2CSCCSC2)cnn1-c1ccc(F)cc1F (stereo not given) | -9.32% |
| Cn1cccc(NC(=O)N2CCC(CSc3ccccc3)C2)c1=O (stereo not given) | -13.5% |
| CCN1CC[C@@]2(C(=O)N3CCOCC3)CCN(C(=O)CC(C)C)CC[C@@H]12 | -2.66% |
| COc1ccc(NC(=O)C2OC(c3cccs3)=NN2C(C)=O)cc1 (stereo not given) | -1.98% |
| COCC(=O)N1CC2(CCN(c3ccccc3)C2)C1 | -5.97% |
| CCOCCCn1c(NC(=O)c2cnc(C)s2)nc2ccccc21 | 4.48% |
| CCOCC(=O)N1CCC(c2nccn2CC2CC2)CC1 | 1.15% |
| O=C(NCC(O)CO)Nc1cc(Br)ccc1F (stereo not given) | -1.48% |
| O=C(CN1CC(c2nc(-c3ccco3)no2)C1)NCC1CCCO1 (stereo not given) | 13.7% |
| COc1cc(NC(=O)NCC2CCCO2)cc(OC)c1OC (stereo not given) | -5.38% |
| CCC(C)NS(=O)(=O)Cc1cccc(NC(=O)C2=CCCC2)c1 (stereo not given) | -4.4% |
| Cc1ccc2nc(CSCC(=O)Nc3nnc(C(C)C)s3)cc(=O)n2c1 | -6.09% |
| Cn1cc(C(O)CNC(=O)Nc2cc(F)ccc2-n2cccn2)cn1 (stereo not given) | 5.74% |
| c1ccc(OC[C@]23COC[C@H]2CN(c2ncccn2)C3)nc1 | -9.18% |
| OC(CNc1ccncn1)CN1CCCCCC1 (stereo not given) | -7.06% |
| Cc1ccc(-c2csc3c(=O)[nH]c(N4CCCC(C(N)=O)C4)nc23)cc1 (stereo not given) | 1.04% |
| COCCN1CC(C(=O)N(CCN(C)C)Cc2ccc(C)s2)CC1=O (stereo not given) | -4.05% |
| Cn1ncc(N2CCN(Cc3ccc(S(C)(=O)=O)cc3)CC2)cc1=O | -5.42% |
| CN1CC2(CCCN(c3nc(N)nc4c3CCCC4)C2)OC1=O (stereo not given) | -10.1% |
| COc1ccc(C(CNC(=O)Nc2cc(C)nn2C)N(C)C)cc1 (stereo not given) | -5.49% |
| CC(C)C(C(=O)N1CCCN(Cc2nccn2C)CC1)N1CCCC1 (stereo not given) | 30.4% |
| Cc1n[nH]c(C)c1NC(=O)CN1CCCC1c1noc(C2CC2)n1 (stereo not given) | -18.5% |
| Cc1nc(C)n(CC2CCCCN2CC(=O)Nc2ccncc2)n1 (stereo not given) | 16.8% |
| Cc1occc1C(=O)N1C[C@@H](C(=O)N2CCCCO2)C[C@H]2OCC[C@H]21 | -7.27% |
